# Measured values published in patent US8741957B2, “Alpha-aminoamide derivatives useful in the treatment of cognitive disorders” (priority 2006, dated 2014).
# Legend:
# [1] = in vivo; cited from earlier work
# [2] = literature reports; cited from earlier work
# [3] = system: early-mild Parkinson's Disease; details: after eight weeks (end of study); cited from earlier work
# [4] = system: mild PD patients; details: in comparison to levodopa; cited from earlier work
# [5] = system: early and moderate-to-advanced PD patients; details: 1 mg dose once daily; cited from earlier work
# [6] = system: patients with PD-related Dementia (PDD); details: cited from earlier work
# [7] = system: normal rats; details: safinamide per se; cited from earlier work
# [8] = target: T1, MAO-A (Homo sapiens, UniProt P21397); details: cited from earlier work
# T1 sequence (P21397 1-527): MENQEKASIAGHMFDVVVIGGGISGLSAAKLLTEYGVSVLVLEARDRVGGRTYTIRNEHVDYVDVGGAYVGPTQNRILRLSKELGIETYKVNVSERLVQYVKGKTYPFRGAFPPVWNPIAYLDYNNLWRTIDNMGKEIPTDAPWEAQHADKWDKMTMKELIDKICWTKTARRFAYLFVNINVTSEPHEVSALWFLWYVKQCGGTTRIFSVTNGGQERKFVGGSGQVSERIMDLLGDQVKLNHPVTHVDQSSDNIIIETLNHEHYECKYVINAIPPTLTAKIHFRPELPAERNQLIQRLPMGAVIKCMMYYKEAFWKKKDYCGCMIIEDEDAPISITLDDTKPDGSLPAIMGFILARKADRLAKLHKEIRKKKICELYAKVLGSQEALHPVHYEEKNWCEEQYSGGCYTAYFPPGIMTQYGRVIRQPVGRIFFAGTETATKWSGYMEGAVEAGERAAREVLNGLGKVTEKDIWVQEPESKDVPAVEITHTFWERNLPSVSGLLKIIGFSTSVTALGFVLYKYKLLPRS
# [9] = system: animal models; details: cited from earlier work
# [10] = system: cholinesterase; details: cited from earlier work
# [11] = system: non demented patients with early PD; assay: Cogtest cognitive battery in double blind Phase III study, safinamide added to a dopamine agonist; type: in vivo, human
# Excerpt: Cogtest® (Computerized Cognitive Test Battery for Clinical Trials) is designed to provide with the highest quality computerised cognitive tests for use in clinical trials. All cognitive tests in the Cogtest® battery have been developed by academic neuropsychologists and clinical trials specialists. This ensures that the most recent developments in cognitive neuroscience, including neurophysiological, functioning neuroimaging and pharmacogenic evidence are incorporated into the Cogtest® library of procedures and into pharmaceutical clinical trials.
# The Cogtest PD battery has been prepared, based on a review of the available tests in the Cogtest library and selection of those tests that would most usefully comprise a battery suitable for Parkinson's Disease. However the same tasks are used in other pathological conditions for testing the two main domains of cognition, reaction time and power.
# The battery takes from 20-30 minutes to administer, and is applicable across different cultures and countries. The following tests were included in the battery:
# The Auditory Number Sequencing task is a test of working memory and executive function. The participant will be presented with clusters of numbers (e.g. 936) of increasing length (from 2 digits to a maximum of 8 digits). They will be asked to tell the tester the numbers in order, from lowest to highest. […]
# This test is similar to the paper-and-pencil ‘cancellation’ tests or the cross-out’ subtest of the WAIS-III, where subjects are required to crossout target stimuli embedded among distracters. […] The variables measured are: Total Experiment Time (from the end of the ‘Get ready’ screen to the end of the last response, in msec), Total Correct responses, Total Perseverative Errors (erroneous pressing of the shape that was the target of the last set, but is not for this set), Strategic efficiency variable (the cumulative distance of territory transversed, i.e., between the location of correct presses on screen for each set) according to literature (Weintraub, S., & Mesulam, M. M. (1987). Archives of Neurology 44 621-625). […]
# [12] = target: T2, MAO-B (Homo sapiens, UniProt P27338); details: cited from earlier work
# T2 sequence (P27338 1-520): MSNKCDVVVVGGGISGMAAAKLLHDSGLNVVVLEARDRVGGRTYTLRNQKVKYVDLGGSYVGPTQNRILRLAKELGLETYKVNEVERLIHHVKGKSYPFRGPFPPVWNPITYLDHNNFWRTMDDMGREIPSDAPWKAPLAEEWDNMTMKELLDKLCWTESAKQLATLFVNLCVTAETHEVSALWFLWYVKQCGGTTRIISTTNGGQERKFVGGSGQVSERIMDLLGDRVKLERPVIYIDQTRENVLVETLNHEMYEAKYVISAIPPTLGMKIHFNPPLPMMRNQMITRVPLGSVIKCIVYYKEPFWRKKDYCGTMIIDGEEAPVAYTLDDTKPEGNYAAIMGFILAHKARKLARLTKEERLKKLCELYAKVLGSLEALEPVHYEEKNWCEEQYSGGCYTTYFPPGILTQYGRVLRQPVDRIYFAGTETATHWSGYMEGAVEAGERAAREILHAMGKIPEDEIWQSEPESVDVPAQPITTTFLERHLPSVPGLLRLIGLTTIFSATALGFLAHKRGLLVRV
# [13] = system: glutamate receptors; details: cited from earlier work
# [14] = system: PD patients; details: after 3 month treatment; cited from earlier work
# [15] = system: glutamate release; details: in condition of pathological glutamate overflow; cited from earlier work
# [16] = system: non demented patients with early PD; assay: UPDRS motor scores in six month double blind clinical trial; type: in vivo, human; details: safinamide associated to a dopamine agonist, compared to the group treated with the DA alone
# Description: A double blind Phase III study, placebo controlled, parallel-group, randomized, multinational was conducted comparing 2 oral doses of Safinamide versus placebo. The placebo group was constituted by patients treated with a stable dose of a dopamine agonist. The dopamine agonist could have been any of the ones used in clinical practice, according to clinical procedures in the different countries. 269 patients (˜90 per arm), were enrolled and treated for six months. Primary efficacy variable was UPDRS III. All the randomized patients were tested for cognitive impairment with Cogtest at Screening, Baseline, week 12 and week 24 (or early discontinuation).
compound,measurement,setting,value
CN1CCc2cccc3c2[C@H]1Cc1ccc(O)c(O)c1-3 [apomorphine],reaction times in visual-spatial working memory (WM),[1],negative effect
N[C@@H](Cc1ccc(O)c(O)c1)C(=O)O [levodopa],effect on cognition,[2],"no effect on cognition, or even impairment"
CCCN1C[C@H](CSC)C[C@@H]2c3cccc4[nH]cc(c34)C[C@H]21 [pergolide],cognitive test scores,[3],without showing amelioration
CCCN[C@H]1CCc2nc(N)sc2C1 [pramipexole],short term verbal memory and attentional-executive functions,[4],impaired
same,verbal fluency,[4],slightly but significantly worsened
C#CCN[C@@H]1CCc2ccccc21 [rasagiline],occurrence of cognitive and behavioural adverse events,[5],without significantly increasing
same,"symptoms of PD, including motor fluctuations",[5],improved
CCN(C)C(=O)Oc1cccc([C@H](C)N(C)C)c1 [rivastigmine],subjective worsening of tremor reported,[6]; in vivo,1.7%
same,patients dropped out due to adverse events,[6]; most commonly due to nausea,17%
same,"response on primary (ADAS-Cog, Clinical Global Impression of Change) and all secondary outcome measures","[6]; versus placebo, differences were moderate",responded better
"C[C@H](NCc1ccc(OCc2cccc(F)c2)cc1)C(N)=O [safinamide, (S)-(+)-2-[4-(3-fluorobenzyloxy)-benzylamino]-propanamide]",cognition in the rat passive avoidance test,[7],does not ameliorate cognition
same,activity on MAO-A,[8],devoid of activity
same,long term neuroprotective effects,[9],demonstrated
same,cholinesterase inhibition,[10],not cholinesterase inhibitors
same,"several cognitive variables (Cogtest), change from baseline","[11]; both groups, low and high dose of safinamide, with a stable dose of a DA, three and six months evaluation times, most marked for executive function",significant improvement from baseline
same,"Strategic Target Detection test, observed score (Z-score)","[11]; both treated groups (low and high dose of safinamide), from baseline to both three and six months",significant improvement
same,cognition compared with DA alone (control group) and with pretreatment,"[11]; safinamide associated to a dopamine agonist, check at three and six months after start of treatment",ameliorate cognitive worsening observed in controls and/or improve cognition as compared to pretreatment
same,MAO-B inhibition,[12],selective MAO-B inhibitor
same,affinity for any of the glutamate receptors,[13],no affinity
same,UPDRS scores,[14],significantly ameliorated
same,glutamate release inhibition,[15],glutamate release inhibitor
same,UPDRS scores (motor symptoms),[16],significantly ameliorate
